Reference: patent US4652560A, “A-deoxy-a-aza derivatives of clavulanic acid, a process for their preparation and their use” (Beecham Group p.l.c., priority 1979, dated 1987)

System: E coli JT39
Assay: Antibacterial Activity, standard MIC test
Format: cell-based
Conditions: Escherichia coli, compound alone
From the text: Using conventional methods the following results were obtained in a standard MIC test: […]

O=C(O)CCCCCCCCCCNC/C=C1\O[C@@H]2CC(=O)N2[C@H]1C(=O)O [11 (b), 9-N-(10'-Carboxydecyl)aminodeoxyclavulanic acid] was tested, and the MIC was greater than 500 µg/mL.
